Biological target: human 5-HT2C receptor (Homo sapiens, UniProt P28335, I156V/I160V/N158S)
Test: cell-based

Chain of human 5-HT2C receptor (P28335 33-458 I156V/N158S/I160V limits assumed): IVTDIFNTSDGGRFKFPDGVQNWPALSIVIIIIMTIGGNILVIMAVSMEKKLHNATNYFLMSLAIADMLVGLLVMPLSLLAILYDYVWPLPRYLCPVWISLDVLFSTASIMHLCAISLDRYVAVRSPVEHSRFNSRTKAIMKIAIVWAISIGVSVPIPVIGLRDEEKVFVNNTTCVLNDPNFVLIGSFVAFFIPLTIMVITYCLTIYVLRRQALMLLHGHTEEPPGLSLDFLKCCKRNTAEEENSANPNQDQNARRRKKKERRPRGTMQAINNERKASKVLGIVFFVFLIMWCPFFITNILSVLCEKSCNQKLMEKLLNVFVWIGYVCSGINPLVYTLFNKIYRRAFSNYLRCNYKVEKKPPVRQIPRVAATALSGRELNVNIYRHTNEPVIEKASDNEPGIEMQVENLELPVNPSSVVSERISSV

Compound	EC50
O=C(C1CN(c2c3c(nc4ccnn24)CCNCC3)C1)N1CCc2cccc(C(F)(F)F)c2C1 [Example 31.122]	33 nM
Clc1cccc(OC2CN(c3c4c(nc5ccnn35)CCNCC4)C2)c1 [Example 35.50]	208 nM
CCc1cnn2c(N3CC(Oc4ccc(OC)cc4)C3)c3c(nc12)CCNCC3 [Example 25.1]	77 nM
O=C(C1CN(c2c3c(nc4ccnn24)CCNCC3)C1)N1CCCNCC1 [Example 37.6]	2 nM
CC(C)CCNC(=O)C1CN(c2c3c(nc4ccnn24)CCN(C)CC3)C1 [Example 36.56]	217 nM
CN1CCc2nc3ccnn3c(N3CC(C(=O)N4CCN(C5CCCCC5)CC4)C3)c2CC1 [Example 36.54]	97 nM
CN1CCc2nc3ccnn3c(N3CC(C(=O)N4CCC(F)CC4)C3)c2CC1 [Example 36.29]	279 nM
Fc1cc(OCC2CN(c3c4c(nc5ccnn35)CCNCC4)C2)ccc1Cl [Example 15.13]	28 nM
O=C(C1CN(c2c3c(nc4ccnn24)CCNCC3)C1)N1CCC2(CCCC2)C1 [Example 31.123]	9 nM
c1ccc2c(c1)ncn2C1CCN(c2c3c(nc4ccnn24)CCNCC3)CC1 [Example 1.42]	9600 nM
CN(C)CCNC(=O)C1CN(c2c3c(nc4ccnn24)CCNCC3)C1 [Example 37.74]	29 nM
FC(F)(F)c1ccnc(OC2CN(c3c4c(nc5ccnn35)CCNCC4)C2)n1 [Example 35.48]	526 nM
C=CCC1CN(C(=O)C2CN(c3c4c(nc5ccnn35)CCNCC4)C2)Cc2ccccc21 (stereo not drawn) [Example 31.88]	71 nM
c1ccc2[nH]c(C3CN(c4c5c(nc6ccnn46)CCNCC5)C3)nc2c1 [Example 34]	611 nM
COc1cc(Cl)ccc1OC1CN(c2c3c(nc4ccnn24)CCNCC3)C1 [Example 35.21]	75 nM
CN1CCN(C(=O)C2CN(c3c4c(nc5ccnn35)CCNCC4)C2)CC1=O [Example 37.100]	14 nM
O=C1CN(C(=O)C2CN(c3c4c(nc5ccnn35)CCNCC4)C2)CCN1 [Example 37.12]	27 nM
CC(C)OCCNC(=O)C1CN(c2c3c(nc4ccnn24)CCNCC3)C1 [Example 37.96]	111 nM
CN(C)C(=O)[C@H]1CCN(c2c3c(nc4ccnn24)CCNCC3)C1 [Example 1.63]	2680 nM
CN1CCc2nc3ccnn3c(N3CC(C(=O)N4CCC(F)(F)CC4)C3)c2CC1 [Example 36.23]	124 nM

Compound	EC50
O=C(NCc1ccccc1)C1CCCN(c2c3c(nc4ccnn24)CCNCC3)C1 (stereo not drawn) [Example 1.22]	1410 nM
CN1CCc2nc3ccnn3c(N3CC(C(=O)N4CCCN(C)CC4)C3)c2CC1 [Example 36.12]	73 nM
c1ccc(OC2CN(c3c4c(nc5ccnn35)CCNCC4)C2)cc1 [Example 1.3]	18 nM
c1cc2nc3c(c(N4CC(OCC5CC5)C4)n2n1)CCNCC3 [Example 20.3]	469 nM
Cc1cnn2c(N3CC(C(=O)N4CCc5c(cccc5C(F)(F)F)C4)C3)c3c(nc12)CCNCC3 [Example 31.239]	80 nM
CN1CCC2(CCN(C(=O)C3CN(c4c5c(nc6ccnn46)CCNCC5)C3)CC2)C1=O [Example 31.151]	319 nM
O=C(C1CN(c2c3c(nc4ccnn24)CCNCC3)C1)N1CCC(c2ccccc2)C1 (stereo not drawn) [Example 31.98]	45 nM
O=C(C1CN(c2c3c(nc4ccnn24)CCNCC3)C1)N1CCC(C(F)(F)F)CC1 [Example 31.83]	8 nM
OC1CN(c2c3c(nc4ccnn24)CCNCC3)C1 [Example 1.2]	127 nM
O=C(C1CN(c2c3c(nc4ccnn24)CCNCC3)C1)N1CCC2(CC1)Oc1ccccc1O2 [Example 31.186]	68 nM
CC(C)c1ccc(OC2CN(c3c4c(nc5ccnn35)CCNCC4)C2)cc1 [Example 35.44]	256 nM
O=C(C1CN(c2c3c(nc4ccnn24)CCNCC3)C1)N1CCCC(Cc2ccc(F)cc2)C1 (stereo not drawn) [Example 31.101]	62 nM
CCN1CCCC1CNC(=O)C1CN(c2c3c(nc4ccnn24)CCNCC3)C1 (stereo not drawn) [Example 37.90]	12 nM
O=C(C1CN(c2c3c(nc4ccnn24)CCNCC3)C1)N1CC(Cc2ccccc2)C1 [Example 31.119]	82 nM
c1cc2nc3c(c(N4CCCOCC4)n2n1)CCNCC3 [Example 1, 10-[1,4]Oxazepan-4-yl-6,7,8,9-tetrahydro-5H-1,4,7,10a-tetraaza-cyclohepta[f]indene]	908 nM
CN(C(=O)C1CN(c2c3c(nc4ccnn24)CCNCC3)C1)C1CCCC1 [Example 31.12]	820 nM
CC1(C)CN(C(=O)C2CN(c3c4c(nc5ccnn35)CCNCC4)C2)Cc2ccccc21 [Example 31.177]	623 nM
O=C(NC1CC2CCC1C2)C1CN(c2c3c(nc4ccnn24)CCNCC3)C1 (stereo not drawn) [Example 37.84]	62 nM
CN(Cc1ccccc1Br)C(=O)C1CN(c2c3c(nc4ccnn24)CCNCC3)C1 [Example 31.78]	83 nM
COc1ccc(OC2CN(c3c4c(nc5c(C)cnn35)CCNCC4)C2)cc1 [Example 27.2]	55 nM

Compound	EC50
Cc1ccc(OCC2CN(c3c4c(nc5ccnn35)CCNCC4)C2)cc1 [Example 15.18]	140 nM
c1cc2nc3c(c(N4CCCCC4)n2n1)CCNCC3 [Example 7.2]	4560 nM
O=C(NCCN1CCCCC1)C1CN(c2c3c(nc4ccnn24)CCNCC3)C1 [Example 37.81]	40 nM
COc1ccc(C)cc1OCC1CN(c2c3c(nc4ccnn24)CCNCC3)C1 [Example 15.7]	12 nM
Fc1cc(Cl)ccc1OCC1CN(c2c3c(nc4ccnn24)CCNCC3)C1 [Example 15.12]	9 nM
O=C(NCCCC(F)(F)F)C1CN(c2c3c(nc4ccnn24)CCNCC3)C1 [Example 37.66]	42 nM
c1ccc2c(c1)nc(C1CN(c3c4c(nc5ccnn35)CCNCC4)C1)n2C1CCCC1 [Example 34.29]	96 nM
CC(C)N1CCCN(C(=O)C2CN(c3c4c(nc5ccnn35)CCN(C)CC4)C2)CC1 [Example 36.49]	78 nM
CC(=O)N1CCCN(C(=O)C2CN(c3c4c(nc5ccnn35)CCNCC4)C2)CC1 [Example 37.102]	67 nM
CN(Cc1ccccn1)C(=O)C1CN(c2c3c(nc4ccnn24)CCNCC3)C1 [Example 31.29]	87 nM
N#CC1CCN(C(=O)C2CN(c3c4c(nc5ccnn35)CCNCC4)C2)C1 (stereo not drawn) [Example 31.159]	32 nM
Cc1ccc2c(c1)CCCN2C(=O)C1CN(c2c3c(nc4ccnn24)CCNCC3)C1 [Example 31.190]	4 nM
CN(Cc1ccc(Br)cc1)C(=O)C1CN(c2c3c(nc4ccnn24)CCNCC3)C1 [Example 31.80]	30 nM
CN1CCc2nc3ccnn3c(N3CC(C(=O)N4CCNCC4)C3)c2CC1 [Example 36.57]	287 nM
CCN(C)C(=O)C1CN(c2c3c(nc4ccnn24)CCNCC3)C1 [Example 31.4]	685 nM
COC[C@H]1CCCN1c1c2c(nc3ccnn13)CCNCC2 [Example 1.12]	507 nM
C#CCCNC(=O)C1CN(c2c3c(nc4ccnn24)CCNCC3)C1 [Example 37.48]	141 nM
O=C(NCc1ccccc1)C1CCN(c2c3c(nc4ccnn24)CCNCC3)CC1 [Example 1.24]	1310 nM
Cn1c(C2CN(c3c4c(nc5ccnn35)CCNCC4)C2)nc2ccc(F)cc21 [Example 34.4]	24 nM
O=C(NC1CCc2ccccc21)C1CN(c2c3c(nc4ccnn24)CCNCC3)C1 (stereo not drawn) [Example 31.32]	49 nM
